Legend:
A-549 = assay: SRB in vitro cytotoxicity assay, A-549 lung cancer cells; type: cell-based; settings: Homo sapiens, A549, 48 h drug exposure, read-out: In vitro anticancer activity GI50, Lung A-549
From the text: (§1) Compounds 4a-4z and 4aa-4ae have been evaluated for their in vitro cytotoxicity in selected human cancer cell lines i.e., colon (Colo205), lung (Hop-62, A549), cervix (SiHa), prostate (PC3), oral (KB, DWD, Gurav), Ovarian (A-2780) and breast (MCF7, Zr-75-1) origin by employing the sulforhodamine B (SRB) assay method (Skehn, P.; Storeng, R.; Scudiero, A.; Monks, J.; MeMohan, D.; Vistica, D.; Jonathan, T. W.; Bokesch, H.; Kenney, S.; Boyd M. R. J. Natl. Cancer Inst. 1990, 82, 1107).
(§2) The synthesized compounds have been evaluated for their in vitro cytotoxicity in human cancer cell lines. A protocol of 48 h continuous drug exposure has been used and a sulforhodamine B (SRB) protein assay has been used to estimate cell viability or growth. The cell lines were grown in DMEM medium containing 10% fetal bovine serum and 2 mM L-glutamine and were inoculated into 96 well microtiter plates in […] at plating densities depending on the doubling time of individual cell lines. The microliter plates were incubated at 37_C, 5% CO2, 95% air, and 100% relative humidity for 24 h prior to addition of experimental drugs. Aliquots of […] of the drug dilutions were added to the appropriate microliter wells already containing […] of cells, suiting in the required final drug concentrations. For each compound four concentrations (0.1, 1, 10 and 100 uM) were evaluated and each was done in triplicate wells. Plates were incubated further for 48 h and assay was terminated by the addition of […] of cold trichloro acetic acid (TCA) (final concentration, 10% TCA) and incubated for 60 min at 4_C. The plates were washed five times with tap water and airdried. Sulforhodamine B (SRB) solution ([…]) at 0.4% (w/v) in 1% acetic acid was added to each of the cells, and plates were incubated for 20 min at room temperature. The residual dye was removed by washing five times with 1% acetic acid. The plates were airdried. Bound stain was subsequently eluted with 10 mM trizma base, and the absorbance was read on an ELISA plate reader at a wavelength of 540 nm with 690 nm reference wavelengths. Percent growth was calculated on a plate by plate basis for test wells relative to control wells. The above determinations were repeated three times. Percentage growth was expressed as the (ratio of average absorbance of the test well to the average absorbance of the control wells)*100. Growth inhibition of 50% (GI50) was calculated from [(Ti−Tz)/(C−Tz)]*100 ¼ 50, which is the drug concentration resulting in a 50% reduction in the net protein increase (as measured by SRB staining) in control cells during the drug incubation. Where, Tz ¼ Optical density at time zero, OD of control ¼ C, and OD of test growth in the presence of drug ¼ Ti.

Gurav = assay: SRB in vitro cytotoxicity assay, Gurav oral cancer cells; type: cell-based; settings: Homo sapiens, 48 h drug exposure, read-out: In vitro anticancer activity GI50, Oral Gurav
From the text: as §1, §2

SiHa = assay: SRB in vitro cytotoxicity assay, SiHa cervix cancer cells; type: cell-based; settings: Homo sapiens, 48 h drug exposure, read-out: In vitro anticancer activity GI50, Cervix SiHa
From the text: as §1, §2

A-2780 = assay: SRB in vitro cytotoxicity assay, A-2780 ovarian cancer cells; type: cell-based; settings: Homo sapiens, A2780, 48 h drug exposure, read-out: In vitro anticancer activity GI50, Ovarian A-2780
From the text: as §1, §2

MCF7 = assay: SRB in vitro cytotoxicity assay, MCF7 breast cancer cells; type: cell-based; settings: Homo sapiens, 48 h drug exposure, read-out: In vitro anticancer activity GI50, Breast MCF7
From the text: as §1, §2

Hop62 = assay: SRB in vitro cytotoxicity assay, Hop62 lung cancer cells; type: cell-based; settings: Homo sapiens, HOP-62, 48 h drug exposure, read-out: In vitro anticancer activity GI50, Lung Hop62
From the text: as §1, §2

PC3 = assay: SRB in vitro cytotoxicity assay, PC3 prostate cancer cells; type: cell-based; settings: Homo sapiens, PC-3, 48 h drug exposure, read-out: In vitro anticancer activity GI50, Prostate PC3
From the text: as §1, §2

KB = assay: SRB in vitro cytotoxicity assay, KB oral cancer cells; type: cell-based; settings: Homo sapiens, 48 h drug exposure, read-out: In vitro anticancer activity GI50, Oral KB
From the text: as §1, §2

DWD = assay: SRB in vitro cytotoxicity assay, DWD oral cancer cells; type: cell-based; settings: Homo sapiens, 48 h drug exposure, read-out: In vitro anticancer activity GI50, Oral DWD
From the text: as §1, §2

Zr-75-1 = assay: SRB in vitro cytotoxicity assay, Zr-75-1 breast cancer cells; type: cell-based; settings: Homo sapiens, 48 h drug exposure, read-out: In vitro anticancer activity GI50, Breast Zr-75-1
From the text: as §1, §2

Colo 205 = assay: SRB in vitro cytotoxicity assay, Colo 205 colon cancer cells; type: cell-based; settings: Homo sapiens, 48 h drug exposure, read-out: In vitro anticancer activity GI50, Colon Colo 205
From the text: as §1, §2

Row | melting point | SMILES | GI50 (A-549) | GI50 (Gurav) | GI50 (SiHa) | GI50 (A-2780) | GI50 (MCF7) | GI50 (Hop62) | GI50 (PC3) | GI50 (KB) | GI50 (DWD) | GI50 (Zr-75-1) | GI50 (Colo 205)
1 | 238 to 240 °C | COc1cc(C2C3=C(COC3=O)Nc3ccc4cn[nH]c4c32)ccc1O (stereo not drawn) [Compound 4o, 10-(4-hydroxy-3-methoxyphenyl)-6,7,9,10-tetrahydro-1H-furo[3,4-b]pyrazolo[3,4-f]quinolin-9-one] | – | – | – | – | 2000 nM | 2800 nM | 2300 nM | – | – | 2100 nM | 2000 nM
2 | 327 to 329 °C | COc1ccc(C2C3=C(COC3=O)Nc3ccc4ncsc4c32)cc1O (stereo not drawn) [Compound 4u, 10-(3-hydroxy-4-methoxyphenyl)-6,7,9,10-tetrahydrofuro[3,4-b][1,3]thiazolo[5,4-f]quinolin-9-one] | < 100 nM | 190 nM | 2000 nM | 180 nM | 180 nM | 2300 nM | 2100 nM | 180 nM | 2000 nM | 160 nM | 150 nM
3 | – | COc1cccc2c1C(=O)c1c(O)c3c(c(O)c1C2=O)C[C@@](O)(C(=O)CO)C[C@@H]3O[C@H]1C[C@H](N)[C@H](O)[C@H](C)O1 [ADR, adriamycin, reference compound] | < 100 nM | < 100 nM | 160 nM | < 100 nM | 130 nM | 150 nM | 160 nM | 130 nM | < 100 nM | 110 nM | < 100 nM
4 | – | COc1cc(C2C3=C(COC3=O)Nc3ccc4cc(C)[nH]c4c32)cc(OC)c1OC (stereo not drawn) [Compound 4j, 2-methyl-10-(3,4,5-trimethoxyphenyl)-6,7,9,10-tetrahydro-1H-furo[3,4-b]pyrrolo[2,3-f]quinolin-9-one] | – | – | 2600 nM | – | – | – | – | – | – | – | –
5 | 293 to 294 °C | COc1ccc(C2C3=C(COC3=O)Nc3ccc4cc(C)[nH]c4c32)cc1O (stereo not drawn) [Compound 4k, 10-(3-hydroxy-4-methoxyphenyl)-2-methyl-6,7,9,10-tetrahydro-1H-furo[3,4-b]pyrrolo[2,3-f]quinolin-9-one] | < 100 nM | 170 nM | – | 190 nM | 2000 nM | 160 nM | 170 nM | 2100 nM | 2000 nM | 170 nM | 2700 nM
6 | 217 to 218 °C | COc1ccc(C2C3=C(COC3=O)Nc3ccc4cn[nH]c4c32)cc1[N+](=O)[O-] (stereo not drawn) [Compound 4r, 10-(4-methoxy-3-nitrophenyl)-6,7,9,10-tetrahydro-1H-furo[3,4-b]pyrazolo[3,4-f]quinolin-9-one] | < 100 nM | 140 nM | – | 130 nM | 160 nM | 130 nM | 160 nM | 120 nM | < 100 nM | 140 nM | 2200 nM
7 | – | COc1cc(C2C3=C(COC3=O)Nc3ccc4cn[nH]c4c32)cc(OC)c1OC (stereo not drawn) [Compound 4n, 10-(3,4,5-trimethoxyphenyl)-6,7,9,10-tetrahydro-1H-furo[3,4-b]pyrazolo[3,4-f]quinolin-9-one] | < 100 nM | 160 nM | 190 nM | 140 nM | 190 nM | 2100 nM | 190 nM | 2100 nM | < 100 nM | 160 nM | 2700 nM
8 | 219 to 221 °C | COc1ccc(-c2noc3c2C(c2ccc(OC)c(O)c2)C2=C(COC2=O)N3)cc1 (stereo not drawn) [Compound 4ab, 4-(3-hydroxy-4-methoxyphenyl)-3-(4-methoxyphenyl)-4,5,7,8-tetrahydrofuro[3′,4′:5,6]pyrido[3,2-d]isoxazol-5-one] | < 100 nM | 140 nM | – | 160 nM | 190 nM | 140 nM | 160 nM | 170 nM | < 100 nM | 140 nM | 2700 nM
9 | 296 to 297 °C | COc1cc(C2C3=C(COC3=O)Nc3ccc4ncsc4c32)ccc1O (stereo not drawn) [Compound 4t, 10-(4-hydroxy-3-methoxyphenyl)-6,7,9,10-tetrahydrofuro[3,4-b][1,3]thiazolo[5,4-f]quinolin-9-one] | < 100 nM | 140 nM | – | 150 nM | 150 nM | 120 nM | 160 nM | 150 nM | < 100 nM | < 100 nM | 2200 nM

Row | SMILES | melting point | GI50 (A-549) | GI50 (Gurav) | GI50 (SiHa) | GI50 (A-2780) | GI50 (MCF7) | GI50 (Hop62) | GI50 (PC3) | GI50 (KB) | GI50 (DWD) | GI50 (Zr-75-1) | GI50 (Colo 205)
10 | COc1cc(C2C3=C(COC3=O)Nc3ccc4nc(C)sc4c32)ccc1O (stereo not drawn) [Compound 4v, 10-(4-hydroxy-3-methoxyphenyl)-2-methyl-6,7,9,10-tetrahydrofuro[3,4-b][1,3]thiazolo[5,4-f]quinolin-9-one] | 293 to 295 °C | < 100 nM | 180 nM | 180 nM | 120 nM | 160 nM | 170 nM | 160 nM | 2000 nM | < 100 nM | 170 nM | –
11 | COc1nc2c(c(OC)n1)C(c1cc(OC)c(OC)c(OC)c1)C1=C(COC1=O)N2 (stereo not drawn) [Compound 4a, 2,4-dimethoxy-5-(3,4,5-trimethoxyphenyl)-5,6,8,9-tetrahydrofuro[3′,4′:5,6]pyrido[2,3-d]pyrimidin-6-one] | 299 to 300 °C | 2100 nM | 2000 nM | – | – | 2400 nM | 2500 nM | 2400 nM | 170 nM | 2400 nM | 2200 nM | 160 nM
12 | COc1cc(C2C3=C(COC3=O)Nc3onc(-c4ccc(Cl)cc4)c32)cc(OC)c1OC (stereo not drawn) [Compound 4ac, 3-(4-chlorophenyl)-4-(3,4,5-trimethoxyphenyl)-4,5,7,8-tetrahydrofuro[3′,4′:5,6]pyrido[3,2-d]isoxazol-5-one] | 248 to 249 °C | < 100 nM | 180 nM | 2300 nM | 2000 nM | 2300 nM | 2500 nM | 2300 nM | 2400 nM | 2000 nM | 190 nM | –
